Reference: patent US5948662A, “Bacillus-derived transglutaminase” (Ajinomoto Co., Inc., priority 1995, dated 1999)
Like-named read-outs stand apart in the source and are kept apart here.

Columns and labels:
[1] = target: T1, Bacillus subtilis AJ1307-derived TG (TG-1) (Bacillus subtilis, UniProt P40746, D22N); type: biochemical; conditions: for Influence of reagent on TG activity (in words): TG-1, summary of Table 1; for Remaining Activity (relative value): pH 7.5, 37° C.
T1 construct: The thus-obtained cells were used as the starting material, from which TG was purified in the manner mentioned below; endogenous in cells; host or cells: Bacillus subtilis AJ1307 (enzyme solubilized from spores and purified to a single band)
Procedure: The TG activity of the enzyme liquids obtained below was determined according to an enzymatic activity measuring method, which is as follows. […] The thus-counted value was referred to as the TG activity of the enzyme liquid.
Effects, if any, of various reagents on the TG activity were checked. The reagents tested herein were N-ethylmaleimide (NEM), cystamine, phenylmethanesulfonyl fluoride (PMSF), ammonium sulfate, sodium sulfate, EDTA, EGTA, calcium chloride, dithiothreitol (DTT) and 2-mercaptoethanol (2-ME). All were bought from Nacalai Tesque, Inc.
As the enzyme source, the previously-prepared pure TG fraction was used at a concentration of 2 μg/ml. The protein concentration was measured, using a protein assay kit (produced by Bio Rad Co.).
To measure the TG activity, the above-mentioned method of using ^1 4C-labeled putrescine and dimethylcasein as the substrates (at pH of 7.5 and at 37° C.) was employed. As the enzyme source, the previously-prepared pure TG fraction was used at a concentration of 2 μg/ml. The reaction was conducted at 37° C. for 30 minutes.
The TG activity was measured in the following manner. The above-mentioned pure TG fraction was mixed with each one of the reagents that had been adjusted to have a suitable concentration and then left on ice for 30 minutes. The solution of the enzyme source thus reacted with each reagent was adjusted to have a TG concentration of 2 μg/ml and then reacted with the substrates, whereupon the TG activity still remained in the resulting reaction system was measured (at pH of 7.5 and at 37° C.).

[2] = target: T2, Bacillus subtilis AJ12866-derived TG (TG-2) (Bacillus subtilis, UniProt P40746); experiment: Influence of reagents on TG activity (TG active fraction after gel permeation, TG-2); conditions: for Remaining Activity (relative value): control = 100
T2 sequence (P40746 1-245): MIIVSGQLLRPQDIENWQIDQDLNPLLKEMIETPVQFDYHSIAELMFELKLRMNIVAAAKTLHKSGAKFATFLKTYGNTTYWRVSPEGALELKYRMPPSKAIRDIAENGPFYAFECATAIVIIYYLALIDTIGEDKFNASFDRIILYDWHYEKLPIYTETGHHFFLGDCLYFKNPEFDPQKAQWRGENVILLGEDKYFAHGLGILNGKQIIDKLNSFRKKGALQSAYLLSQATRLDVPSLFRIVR
Procedure: The method for measuring the enzymatic activity as employed herein was as follows. 50 μl of a reaction system (100 mM Tris-HCl, pH 7.5, 6.3 mg/ml dimethylcasein, 10 nM ^14 C-putrescine, 1.2 μCi) containing 10 μl of the enzyme sample to be measured was kept at 37° C. for 30 minutes thereby to make the substrates reacted. After the reaction, 40 μl of the reaction mixture was adsorbed onto filter paper. In the reaction mixture, the putrescine was reacted with the dimethylcasein due to the catalysis of the TG therein. A bonded reaction product of the putrescine and the dimethylcasein was adsorbed on the filter paper. By adding 10% TCA thereto, the bonded reaction product was fixed on the filter paper. Then, the filter paper was washed three times with a 5% TCA solution, and the ^1 4C radioactivity as fixed to the filter paper was counted with a liquid scintillation counter. The value thus measured corresponds to the relative TG activity of the enzyme sample.
The cells of Bacillus subtilis AJ12866 strain were suspended in a reaction system (0.5 mg/ml lysozyme, 20 μg/ml DNase I, 0.1 M Tris-HCl (pH 7.5), 2 mM DTT, 1 mM EDTA, 2 mM PMSF) and reacted on ice for 2 hours whereby the cells were lysed. The resulting reaction mixture was centrifuged at 20,000×g for 20 minutes, and the precipitate fraction thus obtained was suspended in a washing system (0.1 M Tris-HCl (pH 7.5), 1 mM EDTA, 2 mM PMSF). The resulting suspension was centrifuged, and the precipitate was collected. This operation was repeated for a total of two times.
The thus-obtained precipitate fraction was suspended in a buffer (0.1 M sodium carbonate (pH 10), 1 mM EDTA, 2 mM PMSF) and left at 37° C. for 30 minutes. Meanwhile, a part of the substances that had existed in the precipitate fraction were dissolved in the buffer and the TG activity was transferred to the soluble fraction. […] The pH of the supernatant was adjusted to 6.0 by adding acetic acid thereto. This is referred to as a crude enzyme liquid. The crude enzyme liquid was concentrated by ultrafiltration and then dialyzed against a buffer (50 mM Tris-HCl (pH 7.5), 0.1 M NaCl), whereby the buffer was exchanged. The resulting crude enzyme liquid was subjected to gel permeation, and the TG active fraction thus eluted was collected. The enzymatic properties of the fraction were measured.

[3] = system: Bacillus subtilis-derived TG reported by Ramanujam et al.; conditions: cited from earlier work
[4] = agent concentration 10 (unit not given), control = 100
[5] = agent concentration 5 (unit not given), control = 100

T1 sequence (P40746 whole entry D22N): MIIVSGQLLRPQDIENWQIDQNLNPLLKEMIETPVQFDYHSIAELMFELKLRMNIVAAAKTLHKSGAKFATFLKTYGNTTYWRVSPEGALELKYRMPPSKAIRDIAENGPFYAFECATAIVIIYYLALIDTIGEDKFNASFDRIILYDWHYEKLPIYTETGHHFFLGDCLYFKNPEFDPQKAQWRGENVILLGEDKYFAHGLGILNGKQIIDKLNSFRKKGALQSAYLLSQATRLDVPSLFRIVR

SMILES	Influence of reagent on TG activity (in words) [1]	Remaining Activity (relative value) [1, 4]	Remaining Activity (relative value) ([2]; agent concentration 10 mM)	Influence of reagent on TG activity (in words) ([2]; TG-2, Ca^2+ at 5 mM or more)	also measured
OCCS [2-ME, 2-mercaptoethanol]	not inhibited	111	122		
O=C(O)CN(CCN(CC(=O)O)CC(=O)O)CC(=O)O [EDTA, ethylenediamine-tetraacetic acid]	not inhibited	107			Influence of reagent on TG activity (in words) [2]: almost no influence
O=S(=O)([O-])[O-].[Na+].[Na+] [Na2 SO4, sodium sulfate]	not inhibited	87	85		
CCN1C(=O)C=CC1=O [NEM, N-ethylmaleimide]	inhibited			greatly inhibited	Remaining Activity (relative value) ([1]; agent concentration 1 (unit not given), TG not reacted with reagent = 100, 30 min on ice with reagent): 17
O[C@H](CS)[C@H](O)CS (racemic) [DTT, dithiothreitol]	not inhibited	119		not inhibited	Influence of reagent on the activity of the reported TG (in words) [3]: inhibited; Increase of TG activity in the presence of DTT ([2]; 1 mM of DTT): ≥ 1.5 times
O=S(=O)(F)Cc1ccccc1 [PMSF, phenylmethanesulfonyl fluoride]					Remaining Activity (relative value) [1, 5]: 89; Remaining Activity (relative value) ([2]; agent concentration 5 mM): 95
O=C(O)CN(CCOCCOCCN(CC(=O)O)CC(=O)O)CC(=O)O [EGTA]	not inhibited	98	94		Influence of reagent on the activity of the reported TG (in words) [3]: greatly inhibited
[Ca+2].[Cl-].[Cl-] [CaCl2, calcium chloride]				not inhibited	TG activity maintained in the presence of Ca2+ ([1]; Ca2+ of not less than 5 mM): not less than 50%; Remaining Activity (relative value) [1, 5]: 65; Influence of Ca^2+ on the reported TG (in words) ([3]; Ca^2+ of 5 mM or more): inhibited
NCCSSCCN [cystamine]	inhibited			greatly inhibited	Remaining Activity (relative value) ([1]; agent concentration 2 (unit not given), control = 100): 0
N.N.O=S(=O)(O)O [(NH4)2 SO4, ammonium sulfate]	inhibited	1	3	greatly inhibited	
